Experimental findings from patent publication US20070258972A1, “Combination of a Histone Deacetylase Inhibitor with a Death Receptor Ligand” (priority 2003, published 2007) are described below.

Assay [1] concerns DR5. In words: DR5 cell-membrane expression by flow cytometry, Jurkat cells. In kind it is cell-based, human. Background: In flow cytometry, cells or beads pass a laser one at a time.
For assay [2], the system named is SKW 6.4 and Jurkat leukemia cells. In words: Multi-probe RNase protection assay of mRNA levels. It counts as cell-based, human. The method, then: A RiboQuant Multi-Probe RNase Protection Assay System was used according to the manufacturer's instructions (BD/PharMingen, San Diego, Calif.). A probe set, hAPO-3d (FLICE, FAS, DR5, DR4 and TRAIL) was used for T7 RNA-polymerase directed synthesis of [α-32P] UTP-labeled antisense RNA probes. The probe set contains the DNA templates, including glyceraldehyde-3-phosphate dehydrogenase (GAPDH) used as internal control. The probes (1×10^6 cpm/reaction) are hybridized with 20 μg of RNA isolated from the SKW 6.4 and Jurkat leukemia cells, following treatment with 100 nM LAQ824 at different time points using the RNeasy Mini kit (Qiagen, Valencia, Calif.). After overnight hybridization, samples are digested with RNase to remove single-stranded (non-hybridized) RNA. The remaining probes are resolved on 5% de-naturing polyacrylamide gel and analyzed by autoradiography.

The test system of assay [3] is c-FLIPL mRNA. Briefly: RT-PCR assay for c-FLIP mRNA levels. In kind it is cell-based. The following applies: 8 hours. The method, then:
Total RNA was isolated from cells utilizing a TRIZOL LS reagent (Invitrogen Carlsbad, Calif.). RT-PCR analysis was performed, as previously described. The RNA (1.0 μg) was reverse-transcribed into cDNA by using SuperScript II RT (Invitrogen Carlsbad, Calif.) according to the manufacturer's protocol. For the c-FLIP PCR, the primer sequences are as follows, forward primer: 5′-GCCCGAGCACCGAGACTACG-3′; and reverse primer: 5′-AGG GAC GGD GAG CTG TGA GAC TG-3′. β-actin forward primer: 5′-CTA CM TGA GCT GCG TGT GG-3′; and reverse primer: MG GM GGC TGG MG AGT GC. The PCR reaction containing 0.2 mM concentration of dATP, dCTP, dGTP, dTTP and 200 nM concentration of each c-FLIP primers and 50 nM of each β-actin primers, 1.5 mM of MgCl2, and 10×PCR buffer containing Tris-HCL (pH 8.0), 500 mM KCL and 1 U of Tag polymerase (Invitrogen Carlsbad, Calif.). The reaction is performed at 95° C. for 5 minutes, and is followed by 30 cycles of de-naturating at 95° C. for 45 seconds, annealing at 52° C. for 45 seconds and the extension at 72° C. for one minute. The PCR products are separated on a 2% agarose/eithidium bromide gel. The size of the amplified products was 395 bases pairs for the c-FLIP and 527 base pairs for β-actin product, respectively.

For assay [4], the system named is DR5 promoter associated with acetylated histones H3 and H4. In words: ChIP assay, DR5 promoter. The conditions noted are these: 8 hours, Jurkat cells. In kind it is cell-based, human. The method, then:
ChIP analysis was performed by a slight modification of a previously described method. Cells are incubated overnight at a density of 0.25×10^8 cells/ ml at 37° C. with 5% CO2. […] Formaldehyde was then added to the cells to a final concentration of 1%, and the cells are gently shaken at room temperature for 10 minutes. Following this, the cells are pelleted, suspended in 1 mL of ice-cold PBS containing protease inhibitors (Complete, Boehringer Mannheim). Cells are again pelleted, re-suspended in 0.5 mL of SDS lysis buffer (1% SDS/1.0 mM EDTA/50 mM Tris.HCl, pH 8.1) and incubated on ice for 20 minutes. Lysates are sonicated with 15-second bursts. Debris was removed from samples by centrifugation for 20 minutes at 15,000×g at 4° C. An aliquot of the chromatin preparation (100 μL) was set aside and designated as Input Fraction. […] Immunoprecipitated DNA (both immunoprecipitation samples and Input) was recovered by phenol/chloroform extraction and ethanol precipitation and analyzed by PCR. […] The optimal reaction conditions for PCR are determined for each primer pair. […] The ratio between the immunoprecipitated DNA and Input DNA was calculated for each treatment and primer set. The fold increases after treatment with LAQ824 was calculated from the indicated ratio.

Setting [5] is: 8 hours or 16 hours, densitometry, GAPDH loading control.

In the case of `O=C(/C=C/c1ccc(CN(CCO)CCc2c[nH]c3ccccc23)cc1)NO` [LAQ824, N-hydroxy-3-[4-[[(2-hydroxyethyl)[2-(1H-indol-3-yl)ethyl]-amino]methyl]phenyl]-2E-2-propenamide], in assay [1], the “cell-membrane expression of DR5” value was “induces”. Further, the “mRNA levels of Apo-2L/TRAIL and caspase-8 (FLICE)” value in assay [2] was “only minimally affected”. In assay [2] (setting [5]), the “mRNA expression of DR5, increase” value was found to be 2.4 fold. Besides, the “mRNA expression of FAS, increase” value in assay [2] (setting [5]) is 1.5 fold. The “DR4 mRNA levels, increase” value in assay [2] (only in SKW 6.4 cells) came to 2.2 fold. The “inhibition of the mRNA level of c-FLIPL” value in assay [3] came out at 75%. Besides, the “increase of DR5 promoter associated with acetylated histones H3 and H4” value is reported as 3.3 fold in assay [4] (first of 'respectively' (100 nM / H3)) and 5.7 fold in assay [4] (second of 'respectively' (200 nM / H4)).
